Laboratory results as given in patent publication US20260217691A1, “FOXM1 INHIBITORS AND THEIR USE IN TREATING CANCERS” (THE BOARD OF TRUSTEES OF THE UNIVERSITY OF ILLINOIS, priority 2022, published 2026).

Key:
[1] = system: KG-1, HL-60, K562, THP-1 cells; format: cell-based
[2] = system: canonical FOXM1 target genes; test: Real-time PCR of canonical FOXM1 target genes in primary AML mononuclear cells treated ex vivo; format: cell-based, human; details: primary AML samples (n=5), 5 μM, 24 h
[3] = system: HCT-116 and HCT-FET cells; test: Chemosensitization (caspase-3 cleavage) of colorectal cancer cells to 5′FU; format: cell-based, human
Experimental: FIG. 16. […] (A) Ovarian cancer (OVCAR-8 and ES-2) cells were treated with indicated concentrations of Doxorubicin (Doxo) alone or in combination with STL001 for 24 hrs. […] (C) colon cancer (HCT-116 and FET) cells were treated with indicated concentrations of 5′FU alone or in combination with STL001 for 24 hrs.

[4] = system: 22RV1, LNCaP cells
Experimental: (§1) FIG. 17. […] (A) Prostate cancer (22RV1 and LNCaP) cells were treated with indicated concentrations of paclitaxel alone or in combination with STL001 for 24 hrs. (B) Tamoxifen resistance MCF-7 breast cancer cells (TAM-R) were treated with indicated concentrations of Tamoxifen alone or in combination with STL001 for 24 hrs. In all cases, total protein samples were obtained from cells immediately after treatment and analyzed for FOXM1, cleaved caspase-3 levels via immunoblotting, β-actin was used as internal loading control (n=3). (C) Percent (%) dead cells in TAM-R cells treated with indicated concentrations of Tamoxifen alone or in combination with STL001 for 24 hrs. […] (F) HCC 143 cells with stable shRNA-mediated FOXM1 knockdown (KD) were treated with doxorubicin alone or in combination with STL001 for 24 hrs and compared to parental cells under the same treatment conditions. In all cases, total protein samples were obtained from cells immediately after treatment and analyzed for FOXM1, cleaved caspase-3 levels via immunoblotting, β-actin was used as internal loading control (n=3).

[5] = system: TAMR cells; format: cell-based
Experimental: as §1

[6] = biological target: T1, FOXM1 (Homo sapiens, UniProt Q08050); test: Immunohistochemistry for nuclear FOXM1 in primary AML samples treated ex vivo; format: cell-based; set-up: Total protein samples obtain from treated cells were analyzed for FOXM1 protein levels via immunoblotting; endogenous in cells; host or cells: KG-1, HL-60, K562, THP-1 leukemia cell lines; details: primary AML samples (n=4), 24 h, 43% for DMSO, p=0.06
T1 sequence (Q08050 1-763): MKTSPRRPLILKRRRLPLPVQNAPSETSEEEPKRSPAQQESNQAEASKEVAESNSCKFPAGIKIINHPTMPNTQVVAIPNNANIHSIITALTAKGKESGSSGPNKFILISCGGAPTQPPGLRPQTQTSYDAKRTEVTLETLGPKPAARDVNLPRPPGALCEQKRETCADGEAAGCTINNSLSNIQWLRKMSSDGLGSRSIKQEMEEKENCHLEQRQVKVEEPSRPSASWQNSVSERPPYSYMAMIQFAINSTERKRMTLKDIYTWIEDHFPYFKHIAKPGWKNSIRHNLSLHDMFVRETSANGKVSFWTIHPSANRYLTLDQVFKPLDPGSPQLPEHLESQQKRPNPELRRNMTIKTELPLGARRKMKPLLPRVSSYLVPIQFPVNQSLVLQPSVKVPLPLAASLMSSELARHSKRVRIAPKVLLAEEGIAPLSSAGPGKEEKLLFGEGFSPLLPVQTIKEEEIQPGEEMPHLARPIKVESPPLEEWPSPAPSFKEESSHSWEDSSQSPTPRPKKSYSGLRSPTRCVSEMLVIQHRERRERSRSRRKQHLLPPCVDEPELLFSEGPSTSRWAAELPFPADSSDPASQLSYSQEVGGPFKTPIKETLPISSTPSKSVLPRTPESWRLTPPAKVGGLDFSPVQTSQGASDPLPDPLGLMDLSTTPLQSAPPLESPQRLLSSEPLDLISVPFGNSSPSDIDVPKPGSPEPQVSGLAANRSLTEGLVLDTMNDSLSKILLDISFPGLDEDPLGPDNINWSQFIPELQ
Experimental: FIGS. 13A-13H STL001 is a novel FOXM1 inhibitor that sensitizes leukemia cells to standard cytotoxic and bcl2 inhibitor therapies. FIG. 13A AML cell line KG-1 treated with precursor compound STL427944. FIG. 3B AML cell lines KG-1, HL-60, and K562 were treated with increasing concentrations of STL001 for 24 h. Total protein samples obtained from treated cells were analyzed for FOXM1 protein levels using immunoblotting; β-actin was used as the internal loading control. FIG. 13C KG-1, HL-60, and K562 cells were treated with indicated concentrations of venetoclax and STL001 alone or in combination for 24 h. FIG. 13D KG-1, HL-60, and K562 cells were treated with indicated concentrations of cytarabine and STL001 alone or in combination for 24 h. […] Total protein samples obtained from treated cells were analyzed for FOXM1 protein levels via immunoblotting; β-actin was used as an internal loading control. […] Slides were scanned on an Aperio AT2 brightfield scanner and images were analyzed using HALO 2.0 software. […]
In addition, primary AML samples (n=4) were treated ex vivo with STL001 and slides were scanned on an Aperio AT2 brightfield scanner and images were analyzed using HALO 2.0 software. The % of nuclei staining positive for FOXM1 was calculated per cell and averaged per slide to analyze FOXM1 protein expression and localization. […]

[7] = KG-1, HL-60 and K562 cells, 24 h

In the case of O=C(Oc1cccc(-c2ccn(-c3nc(Nc4ccccc4)nc(N4CCOCC4)n3)n2)c1)c1ccco1 [STL001], the cytotoxic action alone ([1]; AML cell lines, single agent) is reported as “did not exert prominent cytotoxic action on its own”, the “apoptosis (caspase-3 cleavage) in combination with cytarabine” value [1, 7] is reported as “potent induction of apoptosis” and the “apoptosis (caspase-3 cleavage) in combination with venetoclax” value [1, 7] is reported as “potent induction of apoptosis”. The “treatment sensitization effect in cells with stable knockdown of FOXM1” value ([1]; KG-1 shFOXM1 cells, venetoclax) was “absent”, the “expression of FOXM1 transcriptional targets AURKB and CDC25B” value [2] was “significantly suppressed expression” and the “expression of PLK1 and FOXM1” value [2] was “downregulation”. The “sensitivity to cytotoxic effects of 5′FU in combination” value [3] was “significantly enhanced the sensitivity of colorectal cancer cells to cytotoxic effects of 5′FU therapy”, the “cytotoxic effects (caspase-3 cleavage) in combination with taxol” value [4] was “enhanced the cytotoxic effects of taxol-therapy” and the “cytotoxic effects (caspase-3 cleavage, cell viability) in combination with tamoxifen” value [5] was “drastically enhances the cytotoxic effects of tamoxifen therapy”. For the same molecule, the “% of nuclei expressing FOXM1 after treatment” value [6] was 29%.
